{"source": "PubChem BioAssay AID1745844", "about": "(Carcinogenic Potency Database (CPDB), 2022)", "tested_on": "rodent lifetime carcinogenesis bioassay, tumor incidence TD50", "test": "carcinogenic potency in animals, long-term in vivo studies, CPDB compilation (AID 1745844)", "conditions": "rat, inhaled", "note": "Several values for one entry are separate records, joined by “and”; a condition that tells them apart may be missing. Equal entries are not always repeated.", "data": [{"smiles": "C=CCl", "values": [{"measurement": "TD50", "setting": "strain Sprague-Dawley, males, site: extrahepatic tissue, lesion: angiosarcoma, dosed 25 weeks, study length 115 weeks", "value": 468, "unit": "mg/kg/day"}, {"measurement": "TD50", "setting": "strain Sprague-Dawley, males, site: extrahepatic tissue, lesion: angiosarcoma, dosed 52 weeks, study length 123 weeks", "value": 63, "unit": "mg/kg/day"}, {"measurement": "TD50", "setting": "strain Sprague-Dawley, males, site: extrahepatic tissue, lesion: angiosarcoma, dosed 52 weeks, study length 131 weeks", "value": 14900, "unit": "mg/kg/day"}, {"measurement": "TD50", "setting": "strain Sprague-Dawley, males, site: extrahepatic tissue, lesion: angiosarcoma, dosed 52 weeks, study length 139 weeks", "value": 11.7, "unit": "mg/kg/day"}, {"measurement": "TD50", "setting": "strain Sprague-Dawley, males, site: kidney, lesion: nephroblastoma, dosed 25 weeks, study length 139 weeks", "value": 1940, "unit": "mg/kg/day"}, {"measurement": "TD50", "setting": "strain Sprague-Dawley, males, site: kidney, lesion: nephroblastoma, dosed 52 weeks, study length 123 weeks", "value": 37.8, "unit": "mg/kg/day"}, {"measurement": "TD50", "setting": "strain Sprague-Dawley, males, site: kidney, lesion: nephroblastoma, dosed 52 weeks, study length 131 weeks", "value": 2960, "unit": "mg/kg/day"}, {"measurement": "TD50", "setting": "strain Sprague-Dawley, males, site: kidney, lesion: nephroblastoma, dosed 52 weeks, study length 139 weeks", "value": 28.9, "unit": "mg/kg/day"}, {"measurement": "TD50", "setting": "strain Sprague-Dawley, males, site: liver, lesion: angioma, dosed 25 weeks, study length 115 weeks", "value": 580, "unit": "mg/kg/day"}, {"measurement": "TD50", "setting": "strain Sprague-Dawley, males, site: liver, lesion: angioma, dosed 25 weeks, study length 139 weeks", "value": 1030, "unit": "mg/kg/day"}, {"measurement": "TD50", "setting": "strain Sprague-Dawley, males, site: liver, lesion: angioma, dosed 52 weeks, study length 123 weeks", "value": "106 mg/kg/day and 54.3 mg/kg/day"}, {"measurement": "TD50", "setting": "strain Sprague-Dawley, males, site: liver, lesion: angiosarcoma, dosed 25 weeks, study length 115 weeks", "value": 871, "unit": "mg/kg/day"}, {"measurement": "TD50", "setting": "strain Sprague-Dawley, males, site: liver, lesion: angiosarcoma, dosed 52 weeks, study length 123 weeks", "value": "76.7 mg/kg/day and 62.4 mg/kg/day"}, {"measurement": "TD50", "setting": "strain Sprague-Dawley, males, site: liver, lesion: angiosarcoma, dosed 52 weeks, study length 130 weeks", "value": 90, "unit": "mg/kg/day"}, {"measurement": "TD50", "setting": "strain Sprague-Dawley, males, site: liver, lesion: angiosarcoma, dosed 52 weeks, study length 131 weeks", "value": 875, "unit": "mg/kg/day"}, {"measurement": "TD50", "setting": "strain Sprague-Dawley, males, site: liver, lesion: angiosarcoma, dosed 52 weeks, study length 139 weeks", "value": 75.8, "unit": "mg/kg/day"}, {"measurement": "TD50", "setting": "strain Sprague-Dawley, males, site: liver, lesion: hepatocellular carcinoma, dosed 52 weeks, study length 130 weeks", "value": 40.8, "unit": "mg/kg/day"}, {"measurement": "TD50", "setting": "strain Sprague-Dawley, males, site: liver, lesion: hepatoma, dosed 52 weeks, study length 123 weeks", "value": 152, "unit": "mg/kg/day"}, {"measurement": "TD50", "setting": "strain Sprague-Dawley, males, site: liver, lesion: hepatoma, dosed 52 weeks, study length 131 weeks", "value": 13400, "unit": "mg/kg/day"}, {"measurement": "TD50", "setting": "strain Sprague-Dawley, males, site: liver, lesion: several types, types named in the paper, dosed 52 weeks, study length 130 weeks", "value": 294, "unit": "mg/kg/day"}, {"measurement": "TD50", "setting": "strain Sprague-Dawley, males, site: pituitary gland, lesion: one or several types, types not named, dosed 52 weeks, study length 130 weeks", "value": 138, "unit": "mg/kg/day"}, {"measurement": "TD50", "setting": "strain Wistar, females, site: Zymbal's gland, lesion: squamous-cell carcinoma, dosed 52 weeks, study length 52 weeks", "value": 857, "unit": "mg/kg/day"}, {"measurement": "TD50", "setting": "strain Wistar, females, site: liver, lesion: angiosarcoma, dosed 52 weeks, study length 52 weeks", "value": 209, "unit": "mg/kg/day"}, {"measurement": "TD50", "setting": "strain Wistar, females, site: liver, lesion: hepatocellular carcinoma, dosed 52 weeks, study length 52 weeks", "value": 1810, "unit": "mg/kg/day"}, {"measurement": "TD50", "setting": "strain Wistar, females, site: liver, lesion: neoplastic nodule, dosed 52 weeks, study length 52 weeks", "value": 1810, "unit": "mg/kg/day"}, {"measurement": "TD50", "setting": "strain Wistar, females, site: lung, lesion: papillary adenoma, dosed 52 weeks, study length 52 weeks", "value": 1810, "unit": "mg/kg/day"}, {"measurement": "TD50", "setting": "strain Wistar, females, site: nasal cavity, lesion: olfactory epithelial carcinoma, dosed 52 weeks, study length 52 weeks", "value": 276, "unit": "mg/kg/day"}, {"measurement": "TD50", "setting": "strain Wistar, males, site: Zymbal's gland, lesion: carcinoma, dosed 52 weeks, study length 125 weeks", "value": 3540, "unit": "mg/kg/day"}, {"measurement": "TD50", "setting": "strain Wistar, males, site: Zymbal's gland, lesion: squamous-cell carcinoma, dosed 52 weeks, study length 52 weeks", "value": 330, "unit": "mg/kg/day"}, {"measurement": "TD50", "setting": "strain Wistar, males, site: any site (literature study), lesion: several types, types named in the paper, dosed 52 weeks, study length 78 weeks", "value": 5.44, "unit": "mg/kg/day"}, {"measurement": "TD50", "setting": "strain Wistar, males, site: any site (literature study), lesion: several types, types named in the paper, dosed 52 weeks, study length 125 weeks", "value": 1130, "unit": "mg/kg/day"}, {"measurement": "TD50", "setting": "strain Wistar, males, site: brain, lesion: neuroblastoma, dosed 52 weeks, study length 125 weeks", "value": 4140, "unit": "mg/kg/day"}, {"measurement": "TD50", "setting": "strain Wistar, males, site: brain, lesion: one or several types, types not named, dosed 52 weeks, study length 78 weeks", "value": 5820, "unit": "mg/kg/day"}, {"measurement": "TD50", "setting": "strain Wistar, males, site: extrahepatic tissue, lesion: angioma, dosed 52 weeks, study length 125 weeks", "value": 72700, "unit": "mg/kg/day"}, {"measurement": "TD50", "setting": "strain Wistar, males, site: extrahepatic tissue, lesion: angioma, dosed 52 weeks, study length 127 weeks", "value": 0.37, "unit": "mg/kg/day"}, {"measurement": "TD50", "setting": "strain Wistar, males, site: extrahepatic tissue, lesion: angiosarcoma, dosed 52 weeks, study length 125 weeks", "value": 8490, "unit": "mg/kg/day"}, {"measurement": "TD50", "setting": "strain Wistar, males, site: extrahepatic tissue, lesion: angiosarcoma, dosed 52 weeks, study length 127 weeks", "value": 1.05, "unit": "mg/kg/day"}, {"measurement": "TD50", "setting": "strain Wistar, males, site: kidney, lesion: nephroblastoma, dosed 52 weeks, study length 125 weeks", "value": 4510, "unit": "mg/kg/day"}, {"measurement": "TD50", "setting": "strain Wistar, males, site: liver, lesion: angioma, dosed 52 weeks, study length 125 weeks", "value": 3620, "unit": "mg/kg/day"}, {"measurement": "TD50", "setting": "strain Wistar, males, site: liver, lesion: angioma, dosed 52 weeks, study length 127 weeks", "value": 0.654, "unit": "mg/kg/day"}, {"measurement": "TD50", "setting": "strain Wistar, males, site: liver, lesion: angiosarcoma, dosed 52 weeks, study length 52 weeks", "value": 330, "unit": "mg/kg/day"}, {"measurement": "TD50", "setting": "strain Wistar, males, site: liver, lesion: angiosarcoma, dosed 52 weeks, study length 78 weeks", "value": 10.2, "unit": "mg/kg/day"}, {"measurement": "TD50", "setting": "strain Wistar, males, site: liver, lesion: angiosarcoma, dosed 52 weeks, study length 125 weeks", "value": 518, "unit": "mg/kg/day"}, {"measurement": "TD50", "setting": "strain Wistar, males, site: liver, lesion: hepatocellular carcinoma, dosed 52 weeks, study length 52 weeks", "value": 1140, "unit": "mg/kg/day"}, {"measurement": "TD50", "setting": "strain Wistar, males, site: liver, lesion: hepatoma, dosed 52 weeks, study length 125 weeks", "value": 4860, "unit": "mg/kg/day"}, {"measurement": "TD50", "setting": "strain Wistar, males, site: liver, lesion: hepatoma, dosed 52 weeks, study length 127 weeks", "value": 0.728, "unit": "mg/kg/day"}, {"measurement": "TD50", "setting": "strain Wistar, males, site: lung, lesion: angiosarcoma, dosed 52 weeks, study length 78 weeks", "value": 193, "unit": "mg/kg/day"}, {"measurement": "TD50", "setting": "strain Wistar, males, site: lung, lesion: one or several types, types not named, dosed 52 weeks, study length 78 weeks", "value": 867, "unit": "mg/kg/day"}, {"measurement": "TD50", "setting": "strain Wistar, males, site: nasal cavity, lesion: olfactory epithelial carcinoma, dosed 52 weeks, study length 52 weeks", "value": 533, "unit": "mg/kg/day"}, {"measurement": "carcinogen call", "setting": "strain Wistar, males, site: nose, lesion: one or several types, types not named, dosed 52 weeks, study length 78 weeks", "value": "positive"}, {"measurement": "TD50", "setting": "strain Wistar, males, site: skin, lesion: one or several types, types not named, dosed 52 weeks, study length 78 weeks", "value": 5820, "unit": "mg/kg/day"}, {"measurement": "carcinogen call", "setting": "strain Wistar, males, site: testis, lesion: one or several types, types not named, dosed 52 weeks, study length 78 weeks", "value": "positive"}]}]}
